Target: T1, BA/F3-FLT3-ITD + F691L cells (Homo sapiens, UniProt P36888, F691L, cells depend on it, form not given)
T1 sequence (P36888 1-993 F691L): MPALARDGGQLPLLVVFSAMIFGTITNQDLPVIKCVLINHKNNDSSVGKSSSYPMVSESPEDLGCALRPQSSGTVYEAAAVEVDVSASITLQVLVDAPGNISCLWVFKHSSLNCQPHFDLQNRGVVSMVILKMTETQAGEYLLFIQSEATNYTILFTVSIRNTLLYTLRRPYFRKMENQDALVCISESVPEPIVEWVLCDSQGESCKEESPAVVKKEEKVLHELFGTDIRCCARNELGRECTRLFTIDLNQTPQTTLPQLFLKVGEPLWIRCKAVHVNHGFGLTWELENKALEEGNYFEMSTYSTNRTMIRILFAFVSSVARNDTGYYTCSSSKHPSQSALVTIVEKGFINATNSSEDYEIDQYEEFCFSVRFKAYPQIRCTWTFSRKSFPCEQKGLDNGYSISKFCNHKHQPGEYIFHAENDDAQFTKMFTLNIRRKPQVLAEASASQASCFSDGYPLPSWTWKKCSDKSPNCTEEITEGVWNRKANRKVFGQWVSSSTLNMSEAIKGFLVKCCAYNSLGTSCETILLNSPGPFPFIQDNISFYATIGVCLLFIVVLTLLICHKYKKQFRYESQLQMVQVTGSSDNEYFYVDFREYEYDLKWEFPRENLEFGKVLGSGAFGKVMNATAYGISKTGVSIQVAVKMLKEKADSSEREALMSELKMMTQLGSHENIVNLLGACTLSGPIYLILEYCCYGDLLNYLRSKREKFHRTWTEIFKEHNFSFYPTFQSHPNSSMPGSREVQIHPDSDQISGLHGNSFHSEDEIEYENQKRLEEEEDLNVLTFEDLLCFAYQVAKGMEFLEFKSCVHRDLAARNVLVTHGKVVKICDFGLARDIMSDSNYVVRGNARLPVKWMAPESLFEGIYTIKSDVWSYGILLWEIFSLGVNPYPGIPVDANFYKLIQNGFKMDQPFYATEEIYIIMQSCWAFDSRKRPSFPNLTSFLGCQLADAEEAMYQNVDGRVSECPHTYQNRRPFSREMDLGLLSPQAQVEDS
Test: BA/F3-FLT3-ITD + F691L cell proliferation assay (CellTiter-Glo)
Format: cell-based, murine
Details: BaF3 FLT3 ITD/F691L cells; read-out: Cell Activity (IC50 μM) BaF3_FLT3_ITD/F691L
How it was run: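 Murine BA/F3 cells transfected with full-length FLT3 carrying ITD plus D835Y or F691L, grown without IL-3 so growth depends on FLT3. Seeded at 1×10^4 cells/well and dosed with 8 points, 10 to 0.0046 μM, 0.2% DMSO, for three days at 37 °C. IC50 from CellTiter-Glo luminescence (ATP content).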

GI50, 0.0001 to 1 µM:
COc1cc(C(=O)Nc2cnc3[nH]cc(-c4ccc5ncn(C(C)(C)C)c5c4)c3c2)ccn1 [P-245, N-[3-(3-tert-butylbenzimidazol-5-yl)-1H-pyrrolo[2,3-b]pyridin-5-yl]-2-methoxy-pyridine-4-carboxamide]
COc1ncc(-c2cnc3[nH]cc(-c4ccc5ncn(C(C)C)c5c4)c3c2)cn1 [P-269, 1-isopropyl-6-[5-(2-methoxypyrimidin-5-yl)-1H-pyrrolo[2,3-b]pyridin-3-yl]benzimidazole]
FC(F)n1cc(-c2cnc3[nH]cc(-c4ccc5ncn(C6CCCNC6)c5c4)c3n2)cn1 (stereo not shown) [P-257, 2-[1-(difluoromethyl)pyrazol-4-yl]-7-[3-(3-piperidyl)benzimidazol-5-yl]-5H-pyrrolo[2,3-b]pyrazine]
c1cc(-c2cnc3[nH]cc(-c4ccc5ncn(C6CCCNC6)c5c4)c3n2)cc(N2CCOCC2)n1 (stereo not shown) [P-262, 4-[4-[7-[3-(3-piperidyl)benzimidazol-5-yl]-5H-pyrrolo[2,3-b]pyrazin-2-yl]-2-pyridyl]morpholine]
CCCS(=O)(=O)Nc1cccc(-c2cnc3[nH]cc(-c4ccc5ncn(C6CCCNC6)c5c4)c3c2)c1 (stereo not shown) [P-217, N-[3-[3-[3-(3-piperidyl)benzimidazol-5-yl]-1H-pyrrolo[2,3-b]pyridin-5-yl]phenyl]propane-1-sulfonamide]
CC(C)(C)n1cnc2ccc(-c3c[nH]c4ncc(-c5cccc(NS(C)(=O)=O)c5)nc34)cc21 [P-097, N-[3-[7-(3-tert-butylbenzimidazol-5-yl)-5H-pyrrolo[2,3-b]pyrazin-2-yl]phenyl]methanesulfonamide]
C(#Cc1cnc2[nH]cc(-c3ccc4ncn(C5CCCNC5)c4c3)c2n1)c1ccccc1 (stereo not shown) [P-248, 2-(2-phenylethynyl)-7-[3-(3-piperidyl)benzimidazol-5-yl]-5H-pyrrolo[2,3-b]pyrazine]
O=S(=O)(c1cccc(-c2cnc3[nH]cc(-c4ccc5ncn(C6CCCNC6)c5c4)c3c2)c1)N1CCCC1 (stereo not shown) [P-222, 1-(3-piperidyl)-6-[5-(3-pyrrolidin-1-ylsulfonylphenyl)-1H-pyrrolo[2,3-b]pyridin-3-yl]benzimidazole]
CC(C)(C)n1cnc2ccc(-c3c[nH]c4ncc(-c5cnn(C(F)F)c5)nc34)cc21 [P-255, 7-(3-tert-butylbenzimidazol-5-yl)-2-[1-(difluoromethyl)pyrazol-4-yl]-5H-pyrrolo[2,3-b]pyrazine]
CC(C)(C)n1cnc2ccc(-c3c[nH]c4ncc(-c5ccnc(N6CCOCC6)c5)nc34)cc21 [P-228, 4-[4-[7-(3-tert-butylbenzimidazol-5-yl)-5H-pyrrolo[2,3-b]pyrazin-2-yl]-2-pyridyl]morpholine]
c1cc(N2CCOCC2)ccc1-c1cnc2[nH]cc(-c3ccc4ncn(C5CCCNC5)c4c3)c2n1 (stereo not shown) [P-101, 4-[4-[7-[3-(3-piperidyl)benzimidazol-5-yl]-5H-pyrrolo[2,3-b]pyrazin-2-yl]phenyl]morpholine]
C#Cc1cnc2[nH]cc(-c3ccc4ncn(C5CCCNC5)c4c3)c2n1 (stereo not shown) [P-270, 2-ethynyl-7-[3-(3-piperidyl)benzimidazol-5-yl]-5H-pyrrolo[2,3-b]pyrazine]
COc1cnc2[nH]cc(-c3ccc4ncn(-c5cccc(Cl)c5)c4c3)c2c1 [P-105, 1-(3-chlorophenyl)-6-(5-methoxy-1H-pyrrolo[2,3-b]pyridin-3-yl)benzimidazole]
CCCS(=O)(=O)Nc1cccc(-c2cnc3[nH]cc(-c4ccc5ncn(C(C)(C)C)c5c4)c3n2)c1 [P-225, N-[3-[7-(3-tert-butylbenzimidazol-5-yl)-5H-pyrrolo[2,3-b]pyrazin-2-yl]phenyl]propane-1-sulfonamide]
N#Cc1cccc(C(=O)Nc2cnc3[nH]cc(-c4ccc5ncn(C6CCCNC6)c5c4)c3c2)c1 (stereo not shown) [P-236, 3-cyano-N-[3-[3-(3-piperidyl)benzimidazol-5-yl]-1H-pyrrolo[2,3-b]pyridin-5-yl]benzamide]
COc1cc(-c2cnc3[nH]cc(-c4ccc5ncn(C(C)(C)C)c5c4)c3n2)ccn1 [P-099, 7-(3-tert-butylbenzimidazol-5-yl)-2-(2-methoxy-4-pyridyl)-5H-pyrrolo[2,3-b]pyrazine]
O=S1(=O)CCCCN1c1cccc(-c2cnc3[nH]cc(-c4ccc5ncn(C6CCCNC6)c5c4)c3c2)c1 (stereo not shown) [P-224, 2-[3-[3-[3-(3-piperidyl)benzimidazol-5-yl]-1H-pyrrolo[2,3-b]pyridin-5-yl]phenyl]thiazinane 1,1-dioxide]
FC(F)(F)Oc1cccc(-c2cnc3[nH]cc(-c4ccc5ncn(C6CCCNC6)c5c4)c3n2)c1 (stereo not shown) [P-193, 7-[3-(3-piperidyl)benzimidazol-5-yl]-2-[3-(trifluoromethoxy)phenyl]-5H-pyrrolo[2,3-b]pyrazine]
COc1cnc2[nH]cc(-c3ccc4ncn(Cc5ccc(F)cc5)c4c3)c2c1 [P-110, 1-[(4-fluorophenyl)methyl]-6-(5-methoxy-1H-pyrrolo[2,3-b]pyridin-3-yl)benzimidazole]
CC(C)(C)n1cnc2ccc(-c3c[nH]c4ncc(-c5ccc(N6CCOCC6)cc5)nc34)cc21 [P-100, 4-[4-[7-(3-tert-butylbenzimidazol-5-yl)-5H-pyrrolo[2,3-b]pyrazin-2-yl]phenyl]morpholine]
COc1cc(-c2cnc3[nH]cc(-c4ccc5ncn(C(C)C)c5c4)c3n2)ccn1 [P-113, 7-(3-isopropylbenzimidazol-5-yl)-2-(2-methoxy-4-pyridyl)-5H-pyrrolo[2,3-b]pyrazine]
COc1cc(-c2cnc3[nH]cc(-c4ccc5ncn(C6CCCN(C(C)=O)C6)c5c4)c3n2)ccn1 (stereo not shown) [P-260, 1-[3-[6-[2-(2-methoxy-4-pyridyl)-5H-pyrrolo[2,3-b]pyrazin-7-yl]benzimidazol-1-yl]-1-piperidyl]ethanone]
CC(C)(C)n1cnc2ccc(-c3c[nH]c4ncc(C(=O)Nc5cccc(C#N)c5)cc34)cc21 [P-218, 3-(3-tert-butylbenzimidazol-5-yl)-N-(3-cyanophenyl)-1H-pyrrolo[2,3-b]pyridine-5-carboxamide]
CC(C)(C)n1cnc2ccc(-c3c[nH]c4ncc(-c5cnn(C(F)F)c5)cc34)cc21 [P-251, 1-tert-butyl-6-[5-[1-(difluoromethyl)pyrazol-4-yl]-1H-pyrrolo[2,3-b]pyridin-3-yl]benzimidazole]
COc1cc(C(=O)Nc2cnc3[nH]cc(-c4ccc5ncn(C6CCCNC6)c5c4)c3c2)ccn1 (stereo not shown) [P-247, 2-methoxy-N-[3-[3-(3-piperidyl)benzimidazol-5-yl]-1H-pyrrolo[2,3-b]pyridin-5-yl]pyridine-4-carboxamide]
COc1cc(-c2cnc3[nH]cc(-c4ccc5ncn(C(C)(C)CO)c5c4)c3n2)ccn1 [P-186, 2-[6-[2-(2-methoxy-4-pyridyl)-5H-pyrrolo[2,3-b]pyrazin-7-yl]benzimidazol-1-yl]-2-methyl-propan-1-ol]
N#Cc1cc(-c2cnc3[nH]cc(-c4ccc5ncn(C6CCCNC6)c5c4)c3n2)ccc1F (stereo not shown) [P-238, 2-fluoro-5-[7-[3-(3-piperidyl)benzimidazol-5-yl]-5H-pyrrolo[2,3-b]pyrazin-2-yl]benzonitrile]
COc1cnc2[nH]cc(-c3cnc4ncn(Cc5cc(C)on5)c4c3)c2c1 [P-144, 3-[[6-(5-methoxy-1H-pyrrolo[2,3-b]pyridin-3-yl)imidazo[4,5-b]pyridin-1-yl]methyl]-5-methyl-isoxazole]

From patent publication US10160755B2 (Plexxikon Inc., priority 2015, dated 2018)
